We go through 1 compound from US8551963B2, “Imidazolothiazole compounds and methods of use thereof” (Ambit Biosciences Corporation, priority 2008, dated 2013).

Where two headings read alike, the source gives them in different places.

One data set concerns the target CYP2C9 (Homo sapiens (Human), UniProt P11712). The experiment in a line: Cyp enzyme inhibition assay in human liver microsomes, CYP2C9. The format is in vitro ADME. The following applies: CYP2C9, substrate Diclofenac. The procedure:
The ability of the compound I-1 to inhibit human metabolizing enzymes CYP3A4, CYP2C9, […], CYP2C19 and CYP1A2, was assessed using those enzymes found collectively in human liver microsomes. The test compound I-1 was prepared as a solution in DMSO or acetonitrile and plated in duplicate rows of a 96-well plate (Nunc) for a final assay concentration of 40 μM in 0.2% DMSO (or 2% acetonitrile) in the first column and serially diluted two-fold going down the row. A known selective inhibitor of a given CYP enzyme listed in Table 8 was selected as the appropriate positive control. For each CYP enzyme inhibition assay, an appropriate enzyme-substrate mixture was prepared to afford a final assay concentration of 75 mM KPO4/pH 7.4, 6.5 mM MgCl2, 0.25 mg/mL pooled male and female human liver microsome (CellzDirect lot HMMC-PL020) with the amounts of the appropriate substrate for each CYP enzyme assay given in Table 8. The enzyme-substrate mixture was added to columns 1 through 10 and column 11 served as a negative control with enzyme solution lacking substrate. A solution of NADPH (Calbiochem) was then added to all rows except for one where NADPH would be added after the incubation period, in order to detect NADPH-independent non-CYP-mediated metabolism. The plate was briefly vortexed and left to shake in a 37° C. water bath for 20 minutes. […]

In the next data set the test system is MV4;11 cells. The experiment in a line: MV4;11 cellular proliferation assay (Cell Titer Blue). The format is cell-based. The note with it: Homo sapiens, MV4-11, 72 h, read-out: EC50 (50% inhibition of cellular proliferation). Background: The colour change of resazurin is a common sign of viable cells or microbes.
The next data set relates to plasma protein. The experiment in a line: Plasma protein binding assay (equilibrium dialysis). It is filed as in vitro ADME. The note with it: 1 μM, equilibrium dialysis 16-20 hours at 37° C. The procedure: Reagents: 1× Isotonic PBS (Mediatech, Inc., Herndon, Va.); 96 Well Equilibrium Dialyzer (Harvard Apparatus, Holliston, Mass.) and Animal plasma from species of interest.
1 μM solutions of test compound were prepared in both isotonic PBS and 10% animal plasma in isotonic PBS.
200 μl of each test solution was added to opposite sides of the equilibrium dialysis membrane.
Samples were incubated for 16-20 hours at 37° C.
After incubation, 100 μl sample was removed from the PBS side and diluted with 100 μl of 20% animal plasma in PBS.
100 μl sample was removed from the 10% animal plasma side and diluted with 100 μl of 10% animal plasma.
A calibration curve was prepared in 10% animal plasma to extrapolate unknown concentrations.
Samples were analyzed by LC/MS/MS.
50 μl of samples, calibration standards and quality control standards were extracted with 100 μl of acetonitrile containing 25 ng/ml of internal standard.
Calculations Calculate fraction unbound in 10% plasma Fu(10%)=1−(PC−PF)/PC) Convert 10% plasma value to 100% Fu(100%)=Fu10%/(10−9*Fu10%).
Background: In equilibrium dialysis only unbound substance equilibrates across the membrane.

Another data set deals with CYP2C19 (Homo sapiens (Human), UniProt P33261). Put plainly: Time dependant inhibition in human liver microsomes, CYP2C19. It is filed as in vitro ADME. The following applies: CYP2C19, 10 μM, pre-incubation 0-30 minutes. The procedure:
For each CYP isoform tested, 10 μM Compound I-1 was pre-incubated with pooled male and female human liver microsomes with NADPH in a 37° C. shaking water bath in duplicate to afford a final pre-incubation assay concentration of 100 mM KPO4/pH 7.4, 10 mM MgCl2, 2 mg/mL of human liver microsome (CellzDirect lot HLM HMMC-PL020) and 1 mM NADPH (Calbiochem). At each pre-incubation time point (0, 5, 10, 20, and 30 minutes) 20 μL was removed and placed in a second 96 well plate on ice. After all pre-incubation time points were collected 180 uL of additional human microsome liver preparation containing the appropriate CYP specific substrate at its Km concentration listed in Table 11 plus NADPH, was added to each time point. The samples were incubated for an additional 10 minutes in a 37° C. shaking water bath and then quenched with 75:25 acetonitrile (ACN):water containing the appropriate internal standards listed in Table 11. After brief mixing, the plate was centrifuged and the supernatant removed for analysis by LC/MS/MS (API 4000 Qtrap) for the formation of 6-hydroxy-testosterone (CYP3A4), 4-hydroxy-mephenyloin (CYP2C19), or 6-hydroxy-taxol (CYP2C8). […] Consistent with Example 5, Compound I-1 did inhibit CYP2C8-mediated metabolite formation at 10 μM, but not in a time dependent manner.
In general terms: Microsomes from liver hold many membrane-bound enzymes, among them those of drug oxidation.

A further data set deals with CYP3A4 (Homo sapiens (Human), UniProt P08684). The experiment in a line: Inhibitory constant KI in human liver microsomes, CYP3A4. The format is in vitro ADME. The following applies: CYP3A4, global non-linear regression. The procedure:
A 2 mM stock of Compound I-1 was prepared in acetonitrile (ACN) and serially diluted 2-fold from 2000 μM to 15.63 μM in ACN. […] Individual human liver microsome preparations containing the substrate were then incubated with Compound I-1 (final concentration range 40 μM to 0.31 μM of Compound I-1) for a final incubation concentration of 0.5 mg/mL microsome, 75 mM KPO4, 6.5 mM MgCl2, 1 mM NADPH and 2% acetonitrile (ACN). The samples were incubated in a 37° C. shaking water bath for 20 minutes then quenched with ACN:water (75:25) containing internal standards propranolol at 0.3 ng/mL and cortisone at 0.3 ng/mL. After brief mixing, the plate was centrifuged and the supernate removed for analysis by LC/MS/MS (API 4000 Qtrap) for formation of 6-hydroxy-testosterone (CYP3A4), 4-hydroxy-mephenyloin (CYP2C19) or hydroxy-taxol (CYP2C8). The data was analyzed using global non-linear regression software (GraphPad Prism) and the overall fit of the data (R^2) was used to determine if Compound I-1 was a competitive, non-competitive, or uncompetitive inhibitor. In addition the data was plotted as a Lineweaver-Burke graph (1/V versus 1/S, where V is the […] and S is the substrate concentration) for each inhibitor concentration. Based on the location of convergence (competitive and non-competitive) or non convergence (uncompetitive) of the plots at each inhibitor concentration, the type of inhibition was determined.
Global non-linear regression allows analysis of all the individual inhibitor curves simultaneously and determines the best fit value for shared parameters between the data sets, in this case KI (or KI′). The results of the global nonlinear analysis of Compound I-1 inhibition of the CYP450 isoforms 3A4, 2C19 and 2C8 are shown in Table 12.

The target in another data set is hERG channel (Homo sapiens (Human), UniProt Q12809). Put plainly: hERG channel inhibition, whole cell recordings in CHO cells. The note with it: 10 μM.
hERG channel, sequence (Q12809 whole entry): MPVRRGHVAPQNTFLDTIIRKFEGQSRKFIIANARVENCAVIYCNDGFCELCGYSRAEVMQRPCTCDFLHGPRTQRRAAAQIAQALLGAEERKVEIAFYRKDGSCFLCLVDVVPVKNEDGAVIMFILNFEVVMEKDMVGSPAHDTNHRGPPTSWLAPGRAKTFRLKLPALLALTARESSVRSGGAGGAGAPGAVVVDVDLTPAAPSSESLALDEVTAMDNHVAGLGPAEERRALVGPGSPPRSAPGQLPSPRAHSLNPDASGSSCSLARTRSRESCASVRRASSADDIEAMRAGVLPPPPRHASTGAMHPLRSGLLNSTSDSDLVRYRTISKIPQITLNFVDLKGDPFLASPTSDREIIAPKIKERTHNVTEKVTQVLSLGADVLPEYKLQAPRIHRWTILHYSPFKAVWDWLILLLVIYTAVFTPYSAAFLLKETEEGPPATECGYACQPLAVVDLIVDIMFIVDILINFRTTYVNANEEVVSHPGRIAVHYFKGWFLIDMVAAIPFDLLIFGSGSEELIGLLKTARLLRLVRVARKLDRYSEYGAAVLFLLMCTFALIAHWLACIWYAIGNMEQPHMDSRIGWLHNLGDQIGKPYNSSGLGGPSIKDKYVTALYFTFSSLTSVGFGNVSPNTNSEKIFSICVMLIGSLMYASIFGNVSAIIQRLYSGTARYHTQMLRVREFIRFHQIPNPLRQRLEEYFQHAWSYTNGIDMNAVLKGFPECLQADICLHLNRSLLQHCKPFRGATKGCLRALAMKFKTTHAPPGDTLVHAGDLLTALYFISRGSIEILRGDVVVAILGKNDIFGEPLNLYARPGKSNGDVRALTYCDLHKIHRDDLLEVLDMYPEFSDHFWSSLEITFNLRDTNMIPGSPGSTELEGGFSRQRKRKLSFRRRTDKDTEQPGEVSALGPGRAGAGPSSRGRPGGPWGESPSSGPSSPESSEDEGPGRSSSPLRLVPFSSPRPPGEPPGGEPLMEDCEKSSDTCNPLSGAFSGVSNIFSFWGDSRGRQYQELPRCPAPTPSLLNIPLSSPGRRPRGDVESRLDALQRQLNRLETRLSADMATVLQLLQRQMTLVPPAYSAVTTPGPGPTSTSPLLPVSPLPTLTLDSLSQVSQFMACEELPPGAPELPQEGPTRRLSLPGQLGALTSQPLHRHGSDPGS

CYP3A4, sequence (P08684 whole entry): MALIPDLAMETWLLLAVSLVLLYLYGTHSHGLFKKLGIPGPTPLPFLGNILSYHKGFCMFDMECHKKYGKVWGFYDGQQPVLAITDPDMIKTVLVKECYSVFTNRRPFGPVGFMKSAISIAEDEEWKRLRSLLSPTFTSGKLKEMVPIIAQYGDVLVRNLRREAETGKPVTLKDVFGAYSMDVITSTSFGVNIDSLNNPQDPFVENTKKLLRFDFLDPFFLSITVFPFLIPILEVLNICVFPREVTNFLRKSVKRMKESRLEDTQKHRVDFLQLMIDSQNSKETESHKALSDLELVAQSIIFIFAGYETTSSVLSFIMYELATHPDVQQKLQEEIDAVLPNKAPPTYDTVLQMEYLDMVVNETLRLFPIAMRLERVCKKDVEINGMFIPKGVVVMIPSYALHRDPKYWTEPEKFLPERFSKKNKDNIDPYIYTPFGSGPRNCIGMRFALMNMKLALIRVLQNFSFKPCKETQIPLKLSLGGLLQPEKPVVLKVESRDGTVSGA
CYP2C9, sequence (P11712 whole entry): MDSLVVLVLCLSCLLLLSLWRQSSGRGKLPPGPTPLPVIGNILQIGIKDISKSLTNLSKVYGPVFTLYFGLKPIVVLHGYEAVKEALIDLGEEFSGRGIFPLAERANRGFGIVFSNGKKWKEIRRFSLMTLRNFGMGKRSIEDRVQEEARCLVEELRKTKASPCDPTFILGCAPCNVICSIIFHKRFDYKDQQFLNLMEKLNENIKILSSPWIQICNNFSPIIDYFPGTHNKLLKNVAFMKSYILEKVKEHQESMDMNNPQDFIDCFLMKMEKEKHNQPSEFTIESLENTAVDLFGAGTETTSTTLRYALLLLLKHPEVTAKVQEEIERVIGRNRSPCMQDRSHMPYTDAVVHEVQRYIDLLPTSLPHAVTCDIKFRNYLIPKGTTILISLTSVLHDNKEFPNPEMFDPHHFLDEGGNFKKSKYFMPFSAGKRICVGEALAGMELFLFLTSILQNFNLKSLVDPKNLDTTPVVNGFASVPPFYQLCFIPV
CYP2C19, sequence (P33261 whole entry, canonical isoform): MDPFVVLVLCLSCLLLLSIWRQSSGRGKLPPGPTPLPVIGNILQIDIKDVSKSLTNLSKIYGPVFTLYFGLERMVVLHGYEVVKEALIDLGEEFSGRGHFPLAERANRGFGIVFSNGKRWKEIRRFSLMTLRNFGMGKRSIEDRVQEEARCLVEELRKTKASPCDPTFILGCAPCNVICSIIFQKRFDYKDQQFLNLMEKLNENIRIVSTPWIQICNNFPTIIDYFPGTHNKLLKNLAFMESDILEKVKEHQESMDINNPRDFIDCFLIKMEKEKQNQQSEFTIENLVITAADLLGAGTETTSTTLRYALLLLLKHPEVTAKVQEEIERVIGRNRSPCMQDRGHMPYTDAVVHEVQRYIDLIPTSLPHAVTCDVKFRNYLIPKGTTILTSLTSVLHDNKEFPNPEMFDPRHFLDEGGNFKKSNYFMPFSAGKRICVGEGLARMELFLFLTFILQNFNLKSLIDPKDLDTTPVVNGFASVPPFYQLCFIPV
Experimental for MV4;11 cells: Cells were cultured overnight in low serum media with 0.5% FBS. The following day, cells were seeded on to a 96-well plate at 40,000 cells per well at a volume of 100 μL per well.
CTB reagent was thawed in a 37° C. water bath. 40 μL of CTB reagent was added to the plate containing the cells, and the cells were incubated with the reagent at 37° C. in 5% CO2 for 3 hours. The absorbance was measured at 560 nm (excitation)/590 nm (emission) using Spectramax Plus 384 Absorbance Microplate Reader by Molecular Devices.
Experimental for hERG channel: Test articles in this study were therefore characterized to determine their ability to inhibit the hERG channel. Ion channel activity was measured using a stably transfected Chinese Hamster Ovary (CHO) cell line expressing the hERG mRNA.
A CHO cell line stably expressing hERG channels was obtained from Aviva Systems Biology LLC and used for the study. Cells were cultured in DMEM/F12 containing 10% FBS, 1% penicillin/streptomycin and 500 μg/ml G418. Before testing, cells were harvested using Accumax (Innovative Cell Technologies).
Whole cell recordings were performed using PX 7000A (Axon Instruments) with AVIVA's SealChip™ technology. Cells were voltage clamped at a holding potential of −80 mV. The hERG current was then activated by a depolarizing step to −50 mV for 300 ms. This first step at −50 mV was used as a baseline for measuring peak amplitude of the tail current. Next, a voltage step to +20 mV was applied for 5 s to activate the channels. Finally a step back to −50 mV for 5 s removed activation and the deactivating tail current was recorded.
All compounds were prepared from either 10 or 30 mM DMSO stock solutions. Solutions were mixed by sonication for 20 min, followed by vigorous vortexing. […]
After achieving whole cell configuration, cells were monitored for 90 s to assess stability and then washed with External Solution for 66 s. […]

By IC50 is commonly meant the concentration at which inhibition is half-maximal. As a reminder, the Ki is the dissociation constant of the complex between target and ligand, obtained from inhibition or displacement. Take `CC(C)(CO)c1cc(NC(=O)Nc2ccc(-c3cn4c(n3)sc3cc(OCCN5CCOCC5)ccc34)cc2)no1` [Compound I-1, 1-[5-(2-hydroxy-1,1-dimethyl-ethyl)-isoxazol-3-yl]-3-{4-[7-(2-morpholin-4-yl-ethoxy)-benzo[d]imidazo[2,1-b]thiazol-2-yl]-phenyl}-urea]: the IC50 at CYP2C9 was more than 40 µM. Moreover, in the data set with MV4;11 cells, the EC50 stood at 0.3 nM. For the same compound, in the data set on plasma protein, the “Percentage of unbound compound in 10% plasma” value turned out to be 42.5%. The Time dependant inhibition entry at CYP2C19 is “not a time dependant inhibitor”. Also, the Ki on CYP3A4 (read-out: Best Fit KI, Competitive) worked out at 13.1 µM; on CYP3A4 (read-out: Best Fit KI, Non-competitive) it was 48.9 µM; on CYP3A4 (read-out: Best Fit KI′, Uncompetitive), 36 µM. Also, the “% Block Trial 1” value on hERG channel is given as less than 10%. For the same compound, the “% Block Trial 2” value on hERG channel is on record as less than 10%.
